According to patent publication US20080058293A1, “Quinoline Derivates and Their Use in Therapy” (priority 2003, published 2008):
Counter-ions that a name gives are not always drawn.

Assays:
P2X7 receptor = target: T1, P2X7 receptor (Homo sapiens, UniProt Q99572); assay: bbATP-induced ethidium bromide fluorescence in THP-1 cells, P2X7 receptor antagonist activity; format: cell-based; conditions: negative logarithm of concentration reducing bbATP agonist activity by 50%, 10^-5M bbATP, 37° C. one hour
T1 construct: 200 μl of a suspension of THP-1 cells; endogenous in cells; host or cells: THP-1 cells
T1 sequence (Q99572 1-595): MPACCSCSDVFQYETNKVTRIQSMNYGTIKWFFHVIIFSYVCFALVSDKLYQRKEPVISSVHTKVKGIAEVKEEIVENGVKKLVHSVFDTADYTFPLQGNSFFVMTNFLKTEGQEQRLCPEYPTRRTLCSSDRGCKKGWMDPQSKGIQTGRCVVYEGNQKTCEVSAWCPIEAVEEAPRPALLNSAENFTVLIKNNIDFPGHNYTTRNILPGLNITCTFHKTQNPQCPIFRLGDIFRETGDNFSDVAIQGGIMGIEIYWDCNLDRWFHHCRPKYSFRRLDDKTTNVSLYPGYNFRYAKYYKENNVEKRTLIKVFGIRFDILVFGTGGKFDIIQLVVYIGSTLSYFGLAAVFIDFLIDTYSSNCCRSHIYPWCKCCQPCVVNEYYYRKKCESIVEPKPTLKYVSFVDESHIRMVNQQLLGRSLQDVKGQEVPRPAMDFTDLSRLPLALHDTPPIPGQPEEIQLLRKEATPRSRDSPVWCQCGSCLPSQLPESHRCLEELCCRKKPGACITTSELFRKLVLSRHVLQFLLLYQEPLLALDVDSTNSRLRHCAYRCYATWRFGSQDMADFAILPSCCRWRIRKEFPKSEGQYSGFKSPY
Text: Certain compounds such as benzoylbenzoyl adenosine triphosphate (bbATP) are known to be agonists of the P2X7 receptor, effecting the formation of pores in the plasma membrane (Drug Development Research (1996), 37(3), p. 126). Consequently, when the receptor is activated using bbATP in the presence of ethidium bromide (a fluorescent DNA probe), an increase in the fluorescence of intracellular DNA-bound ethidium bromide is observed. The increase in fluorescence can be used as a measure of P2X7 receptor activation and therefore to quantify the effect of a compound on the P2X7 receptor.
In this manner, each of the title compounds of the Examples was tested for antagonist activity at the P2X7 receptor. Thus, the test was performed in 96-well flat bottomed microtitre plates, the wells being filled with 250 μl of test solution comprising 200 μl of a suspension of THP-1 cells (2.5×10^6 cells/ml) containing 10^−4M ethidium bromide, 25 μl of a high potassium buffer solution containing 10^−5M bbATP, and 25 μl of the high potassium buffer solution containing 3×10^−5M test compound. The plate was covered with a plastics sheet and incubated at 37° C. for one hour. The plate was then read in a Perkin-Elmer fluorescent plate reader, excitation 520 nm, emission 595 nm, slit widths: Ex 15 nm, Em 20 nm. For the purposes of comparison, bbATP (a P2X7 receptor agonist) and pyridoxal 5-phosphate (a P2X7 receptor antagonist) were used separately in the test as controls.

Row | IC50 (P2X7 receptor) [nM] | melting point [°C] | Compound
1 | 316 |  | Cc1ccc2c(C(=O)NC[C@H](C)c3ccccc3)c(Cl)ccc2n1 [Example 1, 6-Chloro-2-methyl-N-[(2R)-2-phenylpropyl]-5-quinolinecarboxamide, hydrochloride]
2 | 31.6 |  | CNCCCN(C)c1ccc2c(NC(=O)C[C@@H](C)c3ccccc3)c(Cl)ccc2n1 [Example 3, (βR)-N-[6-Chloro-2-[methyl[3-(methylamino)propyl]amino]-5-quinolinyl]-β-methyl-benzenepropanamide, ditrifluoroacetate]
3 |  | 155 to 158 | C[C@H](CC(=O)Nc1c(Cl)ccc2nc(N3CC[C@H](NCCCO)C3)ccc12)c1ccccc1 [Example 15, (βR)-N-[6-Chloro-2-[(3S)-3-[(3-hydroxypropyl)amino]-1-pyrrolidinyl]-5-quinolinyl]-β-methyl-benzenepropanamide]
4 |  | 231 to 234 | O=C(CCc1ccccc1)Nc1c(Cl)ccc2nc(N3CCNCC3)ccc12 [Example 17, N-[6-Chloro-2-(1-piperazinyl)-5-quinolinyl]-benzenepropanamide]
5 |  | 200 to 212 | N[C@H]1CCN(c2ccc3c(NC(=O)CCc4ccccc4Cl)c(Cl)ccc3n2)C1 [Example 18, N-[2-[(3S)-3-Amino-1-pyrrolidinyl]-6-chloro-5-quinolinyl]-2-chlorobenzenepropanamide]
6 |  | 180 to 182 | O=C(CCc1ccccc1Cl)Nc1c(Cl)ccc2nc(N3CC[C@H](NCCO)C3)ccc12 [Example 19, 2-Chloro-N-[6-chloro-2-[(3S)-3-[(2-hydroxyethyl)amino]-1-pyrrolidinyl]-5-quinolinyl]-benzenepropanamide]
7 | 794 |  | O=C(CCc1ccccc1Cl)Nc1c(Cl)ccc2nc(N3CCC(C(=O)O)CC3)ccc12 [Example 20, 1-[6-Chloro-5-[[3-(2-chlorophenyl)-1-oxopropyl]amino]-2-quinolinyl]-4-piperidinecarboxylic acid, potassium salt]
8 |  | 196 to 198 | N[C@H]1CCN(c2ccc3c(C(=O)NCCc4ccccc4Cl)c(Cl)ccc3n2)C1 [Example 21, 2-[(3S)-3-Amino-1-pyrrolidinyl]-6-chloro-N-[2-(2-chlorophenyl)ethyl]-5-quinolinecarboxamide]
9 |  | 170 to 172 | O=C(NCCc1ccccc1Cl)c1c(Cl)ccc2nc(N3CC[C@H](NCCO)C3)ccc12 [Example 22, 6-Chloro-N-[2-(2-chlorophenyl)ethyl]-2-[(3S)-3-[(2-hydroxyethyl)amino]-1-pyrrolidinyl]-5-quinolinecarboxamide]
10 |  | 262 to 264 | O=C(NCCc1c(Cl)cccc1Cl)c1c(Cl)ccc2nc(N3CCC(C(=O)O)CC3)ccc12 [Example 23, 1-[6-Chloro-5-[[[2-(2,6-dichlorophenyl)ethyl]amino]carbonyl]-2-quinolinyl]-4-piperidinecarboxylic acid]
11 |  | 250 to 253 | O=C(NCCc1ccccc1Cl)c1c(Cl)ccc2nc(N3CCC(C(=O)O)CC3)ccc12 [Example 24, 1-[6-Chloro-5-[[[2-(2-chlorophenyl)ethyl]amino]carbonyl]-2-quinolinyl]-4-piperidinecarboxylic acid]
12 |  | 260 to 262 | O=C(NCCc1ccccc1)c1c(Cl)ccc2nc(N3CCC(C(=O)O)CC3)ccc12 [Example 26, 1-[6-Chloro-5-[[(2-phenylethyl)amino]carbonyl]-2-quinolinyl]-4-piperidinecarboxylic acid]
13 |  | 270 to 272 | O=C(NCCc1ccccc1F)c1c(Cl)ccc2nc(N3CCC(C(=O)O)CC3)ccc12 [Example 27, 1-[6-Chloro-5-[[[2-(2-fluorophenyl)ethyl]amino]carbonyl]-2-quinolinyl]-4-piperidinecarboxylic acid]
14 |  | 237 to 241 | Cc1ccccc1CCNC(=O)c1c(Cl)ccc2nc(N3CCC(C(=O)O)CC3)ccc12 [Example 28, 1-[6-Chloro-5-[[[2-(2-methylphenyl)ethyl]amino]carbonyl]-2-quinolinyl]-4-piperidinecarboxylic acid]
15 |  | 150 to 153 | C[C@H](CNC(=O)c1c(Cl)ccc2nc(N3CCC(C(=O)O)CC3)ccc12)c1ccccc1 [Example 29, 1-[6-Chloro-5-[[[(2S)-2-phenylpropyl]amino]carbonyl]-2-quinolinyl]-4-piperidinecarboxylic acid]
16 |  | 231 to 234 | O=C(NCCc1ccc(Cl)cc1)c1c(Cl)ccc2nc(N3CCC(C(=O)O)CC3)ccc12 [Example 31, 1-[6-Chloro-5-[[[2-(4-chlorophenyl)ethyl]amino]carbonyl]-2-quinolinyl]-4-piperidinecarboxylic acid]
